For one compound, CC50 results are on record in US20260274836A1, “NOVEL HEPATOSELECTIVE POLYADENYLATING POLYMERASES INHIBITORS AND THEIR METHOD OF USE” (Baruch S. Blumberg Institute, priority 2022, published 2026).

Where only a bound is given, the exact number is not on record here.

This data set is described as follows: in vitro. It counts as cell-based. The conditions noted are these: human. The procedure:
Assays for the anti-HAV activity of the hepatoselective DHQ compounds were carried out in Huh-7 human hepatoma cells using the 18f-NLuc reporter virus, which expresses nanoluciferase (NLuc) from sequence inserted into the polyprotein coding region of the HM175/18f HAV genome between the VP1pX and 2B coding sequences (Yamane et al., 2019). The method was modified minimally from that described by Misumi et al. for iminosugar compounds (Misumi et al., 2021). Cells (approximately […]) were plated in wells of a 96-well plate with Dulbecco's modified Eagle medium (DMEM) and 10% fetal bovine serum. The cells were inoculated 24 hrs later with 18f-NLuc virus (approximately 10^6-10^7 genome equivalents) in medium containing increasing concentrations of the compounds of interest. […] Luminescence was measured using a Biotek Synergy II multi-mode plate reader (BioTek Instruments). […] Cell toxicity of the compounds was assessed using the WST-1 Cell Proliferation Reagent (Sigma-Aldrich) at the end of the treatment period in parallel cultures of uninfected cells, with WST-1 reagent added to cultures for 1 hr prior to harvest and O.D. reading.
Additional exemplary compounds of the present invention are evaluated for anti-HAV activity in accordance with certain assays described hereinabove. […] Luminescence was measured using a Biotek Synergy II multi-mode plate reader (BioTek Instruments). […]

By CC50 is commonly meant the concentration at which the toxic effect on the cells reaches its halfway point.

As to `COc1cc2c(cc1OCCCCCCC(=O)O)C[C@@H](C(C)C)n1cc(C(=O)O)c(=O)cc1-2` [Example 6, (S)-9-((6-carboxyhexyl)oxy)-6-isopropyl-10-methoxy-2-oxo-6,7-dihydro-2H-pyrido[2,1-a]isoquinoline-3-carboxylic acid], the CC50 at 48 h was greater than 10 µM.
